Experimental data: ChEMBL document CHEMBL4145495, “Development of novel oxazolo[5,4-d]pyrimidines as competitive CB2 neutral antagonists based on scaffold hopping” (Eur J Med Chem, 2018)

Columns and labels:
[1] = Cytotoxicity against human HT-29 cells assessed as cell growth inhibition at 10 uM after 72 hrs by MTS assay; type: cell-based; conditions: read-out: GI
Cannabinoid receptor 1 = Cannabinoid receptor 1 (Homo sapiens, UniProt P21554); assay: Displacement of [3H]-CP-55940 from human CB1 expressed in CHO cells after 90 mins by TopCount scintillation counting method; type: cell-based
Cannabinoid receptor 2 [2] = target: T1, Cannabinoid receptor 2 (Homo sapiens, UniProt P34972); assay: Displacement of [3H]-CP-55940 from human CB2 expressed in CHO cells after 90 mins by TopCount scintillation counting method; type: cell-based
[3] = Cytotoxicity against wild-type CHO cells assessed as cell growth inhibition at 10 uM after 72 hrs by MTS assay; type: cell-based, Cricetulus griseus; conditions: chinese hamster, read-out: GI
[4] = Cytotoxicity against CB2-expressing CHO cells assessed as cell growth inhibition at 10 uM after 72 hrs by MTS assay; type: cell-based, Cricetulus griseus; conditions: chinese hamster, read-out: GI
[5] = Half life in CD1 mouse liver microsomes at 200 nM up to 40 mins by UPLC-MS/MS analysis; type: ADME, microsome
Homo sapiens = species: Homo sapiens; assay: Selectivity index, ratio of Ki for human CB1 to Ki for human CB2
[6] = Intrinsic clearance in CD1 mouse liver microsomes at 200 nM up to 40 mins by UPLC-MS/MS analysis; type: ADME, microsome; conditions: read-out: CLH
[7] = Intrinsic clearance in CD1 mouse liver microsomes at 1 uM up to 40 mins by UPLC-MS/MS analysis; type: ADME, microsome; conditions: read-out: CLH
[8] = Half life in CD1 mouse liver microsomes at 1 uM up to 40 mins by UPLC-MS/MS analysis; type: ADME, microsome
Cannabinoid receptor 2 [9] = target: T1, Cannabinoid receptor 2; assay: Neutral antagonist activity at human CB2 assessed as inhibition of WIN552122-induced suppression of cAMP formation preincubated for 15 mins followed by forskolin addition for 30 mins measured after 1 hr by HTRF assay; type: functional
Cannabinoid receptor 2 [10] = target: T1, Cannabinoid receptor 2; assay: Neutral antagonist activity at human CB2 assessed as restoration of forskolin-induced cAMP formation preincubated for 15 mins followed by forskolin addition for 30 mins measured after 1 hr by HTRF assay; type: functional

Chain of Cannabinoid receptor 1 (P21554 whole entry): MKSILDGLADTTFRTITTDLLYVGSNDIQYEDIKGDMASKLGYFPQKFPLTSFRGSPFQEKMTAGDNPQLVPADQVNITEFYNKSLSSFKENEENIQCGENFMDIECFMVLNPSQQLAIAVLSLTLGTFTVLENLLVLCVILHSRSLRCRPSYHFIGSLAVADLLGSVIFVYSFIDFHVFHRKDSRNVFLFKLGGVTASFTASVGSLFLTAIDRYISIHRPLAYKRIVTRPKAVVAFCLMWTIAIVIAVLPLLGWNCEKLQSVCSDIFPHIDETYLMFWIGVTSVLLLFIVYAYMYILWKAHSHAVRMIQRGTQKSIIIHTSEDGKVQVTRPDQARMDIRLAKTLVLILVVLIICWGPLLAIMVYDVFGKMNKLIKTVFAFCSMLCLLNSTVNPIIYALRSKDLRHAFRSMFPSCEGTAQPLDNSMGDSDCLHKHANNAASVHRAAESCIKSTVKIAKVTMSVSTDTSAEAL
T1 sequence (P34972 whole entry): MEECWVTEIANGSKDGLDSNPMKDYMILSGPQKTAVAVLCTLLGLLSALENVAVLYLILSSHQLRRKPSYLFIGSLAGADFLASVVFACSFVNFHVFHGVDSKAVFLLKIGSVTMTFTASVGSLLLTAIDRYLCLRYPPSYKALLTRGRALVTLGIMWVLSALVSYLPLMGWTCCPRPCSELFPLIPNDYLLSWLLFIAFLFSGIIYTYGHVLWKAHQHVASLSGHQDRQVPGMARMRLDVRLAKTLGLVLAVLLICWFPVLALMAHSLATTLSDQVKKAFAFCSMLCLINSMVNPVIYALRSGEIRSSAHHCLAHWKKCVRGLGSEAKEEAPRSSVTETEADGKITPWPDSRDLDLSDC

Row | Structure (SMILES) | inhibition at 72 h, 10 µM [1] | Ki (Cannabinoid receptor 1) | Ki (Cannabinoid receptor 2 [2]) | inhibition at 72 h, 10 µM [3] | inhibition at 72 h, 10 µM [4] | half-life at 0.2 µM [5] | Ratio Ki (Homo sapiens) | microsomal CLint at 0.2 µM [6] | microsomal CLint at 1 µM [7] | half-life at 1 µM [8] | IC50 (Cannabinoid receptor 2 [9]) | IC50 (Cannabinoid receptor 2 [10])
1 | Clc1ccccc1-c1nc2c(N3CCOCC3)ncnc2o1 | 5% | > 1000 nM | > 1000 nM | 0% | 10% |  |  |  |  |  |  | 
2 | Clc1ccccc1-c1nc2c(NCC3CCCCC3)ncnc2o1 | 0% | > 1000 nM | > 1000 nM | 0% | 10% |  |  |  |  |  |  | 
3 | CCCN1CCN(c2ncnc3oc(-c4ccccc4Cl)nc23)CC1 | 0% | > 1000 nM | > 1000 nM | 0% | 2% |  |  |  |  |  |  | 
4 | CC(=O)N1CCN(c2ncnc3oc(-c4ccccc4Cl)nc23)CC1 | 0% | > 1000 nM | 678 nM | 23% | 11% | 12.2 min | > 1.4 | 194 µL/min/mg |  |  |  | 
5 | CCN1CCN(c2ncnc3oc(-c4ccccc4)nc23)CC1 | 0% | > 1000 nM | > 1000 nM | 0% | 0% |  |  |  |  |  |  | 
6 | CCN1CCN(c2nc(C)nc3[nH]c(-c4ccccc4Cl)nc23)CC1 | 0% |  |  | 30% | 0% |  |  |  | 54 µL/min/mg | 44 min |  | 
7 | CCCCNc1ncnc2oc(-c3ccccc3Cl)nc12 | 0% | > 1000 nM | > 1000 nM | 0% | 18% |  |  |  |  |  |  | 
8 | Clc1ccccc1-c1nc2c(NCC3CCNCC3)ncnc2o1 | 41% | > 1000 nM | > 1000 nM | 0% | 9% |  |  |  |  |  |  | 
9 | CN1CCN(c2ncnc3oc(-c4ccccc4)nc23)CC1 | 0% | > 1000 nM | > 1000 nM | 0% | 0% |  |  |  |  |  |  | 
10 | CC(=O)N1CCN(c2ncnc3oc(-c4ccccc4C(F)(F)F)nc23)CC1 | 12% | > 1000 nM | 254 nM | 12% | 1% |  | > 3.9 |  | 174 µL/min/mg | 12.5 min |  | 
11 | CN1CCN(c2ncnc3oc(-c4ccccc4Cl)nc23)CC1 | 8% | > 1000 nM | 350 nM | 0% | 0% | 1.3 min | > 2.8 | 1180 µL/min/mg |  |  |  | 
12 | CN1CCN(c2ncnc3oc(-c4ccccc4F)nc23)CC1 | 0% | > 1000 nM | > 1000 nM | 8% | 7% |  |  |  |  |  |  | 
13 | CCN1CCN(c2ncnc3oc(-c4ccccc4Cl)nc23)CC1 | 4% | > 1000 nM | 329 nM | 1% | 9% |  | > 3 |  | 1100 µL/min/mg | 1.2 min |  | 
14 | CCN1CCN(c2ncnc3oc(-c4ccccc4C(F)(F)F)nc23)CC1 | 1% | > 1000 nM | 95.5 nM | 10% | 5% |  | > 10.4 |  | 1240 µL/min/mg | 1 min |  | 
15 | CCN1CCN(c2nc(C)nc3oc(-c4ccccc4Cl)nc23)CC1 | 16% | 293 nM | 23 nM | 0% | 16% |  | 12.7 |  | 263 µL/min/mg | 8.1 min | 120 nM | 120 nM
16 | Cc1nc(N2CCN(C)CC2)c2nc(-c3ccccc3Cl)oc2n1 | 24% | > 1000 nM | 27.5 nM | 0% | 4% |  | > 36.3 |  | 502 µL/min/mg | 4.1 min | 930 nM | 930 nM
17 | CCN1CCN(c2ncnc3oc(-c4ccccc4F)nc23)CC1 | 24% | > 1000 nM | > 1000 nM | 10% | 8% |  |  |  |  |  |  | 
18 | COc1ccc(C(=O)c2c(C)n(CCN3CCOCC3)c3cc(I)ccc23)cc1 | 0% |  | 91 nM | 0% | 0% |  |  |  |  |  |  | 
19 | COCCNc1ncnc2oc(-c3ccccc3Cl)nc12 | 0% | > 1000 nM | > 1000 nM | 0% | 0% |  |  |  |  |  |  | 
20 | CCCCCNc1ncnc2oc(-c3ccccc3Cl)nc12 | 10% | > 1000 nM | > 1000 nM | 6% | 13% |  |  |  |  |  |  | 
21 | CN1CCN(c2ncnc3oc(-c4ccccc4C(F)(F)F)nc23)CC1 | 0% | > 1000 nM | 155 nM | 3% | 0% |  | > 6.4 |  | 1260 µL/min/mg | 0.9 min |  | 
